# Activity calls are given as the source filed them.
# Tests used:
# [1] = biological target: T1, Zinc finger protein mex-5 (Caenorhabditis elegans, UniProt Q9XUB2); assay: MEX-5/TCR-2 RNA interaction inhibitors, dose response, biochemical, C. elegans, fluorescence polarization (AID 1960)
# T1 sequence (Q9XUB2 whole entry): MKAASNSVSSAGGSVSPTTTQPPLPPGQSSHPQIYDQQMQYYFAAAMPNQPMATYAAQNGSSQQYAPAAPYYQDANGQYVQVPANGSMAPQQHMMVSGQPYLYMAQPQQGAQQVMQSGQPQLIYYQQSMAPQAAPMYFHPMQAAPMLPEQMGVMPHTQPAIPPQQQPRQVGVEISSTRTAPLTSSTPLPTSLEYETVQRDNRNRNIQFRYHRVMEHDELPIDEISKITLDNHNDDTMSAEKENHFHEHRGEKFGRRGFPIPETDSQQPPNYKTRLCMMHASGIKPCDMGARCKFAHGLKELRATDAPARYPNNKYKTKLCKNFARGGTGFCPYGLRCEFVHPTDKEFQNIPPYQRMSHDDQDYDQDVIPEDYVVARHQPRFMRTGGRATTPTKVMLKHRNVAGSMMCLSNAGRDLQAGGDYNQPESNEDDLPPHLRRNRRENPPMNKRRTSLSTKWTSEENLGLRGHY
# [2] = biological target: T2, RNA-binding protein pos-1 (Caenorhabditis elegans, UniProt G5EF15); assay: inhibitors of POS-1/mex-3 RNA binding, dose response, biochemical, fluorescence polarization (AID 1964);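 also: purified POS-1 fused to maltose binding protein made in E. coli; potency of compounds blocking POS-1 binding to fluorescent RNA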
# T2 sequence (G5EF15 whole entry): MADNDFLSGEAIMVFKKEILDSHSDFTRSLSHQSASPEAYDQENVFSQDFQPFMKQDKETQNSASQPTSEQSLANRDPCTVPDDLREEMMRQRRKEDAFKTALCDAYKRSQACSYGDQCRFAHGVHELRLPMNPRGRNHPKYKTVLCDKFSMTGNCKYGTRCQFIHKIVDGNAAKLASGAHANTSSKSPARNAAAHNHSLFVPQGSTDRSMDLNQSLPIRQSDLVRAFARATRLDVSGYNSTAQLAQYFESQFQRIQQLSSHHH
# Protein skinhead-1 = biological target: T3, Protein skinhead-1 (Caenorhabditis elegans, UniProt P34707); type: functional
# T3 sequence (P34707 whole entry): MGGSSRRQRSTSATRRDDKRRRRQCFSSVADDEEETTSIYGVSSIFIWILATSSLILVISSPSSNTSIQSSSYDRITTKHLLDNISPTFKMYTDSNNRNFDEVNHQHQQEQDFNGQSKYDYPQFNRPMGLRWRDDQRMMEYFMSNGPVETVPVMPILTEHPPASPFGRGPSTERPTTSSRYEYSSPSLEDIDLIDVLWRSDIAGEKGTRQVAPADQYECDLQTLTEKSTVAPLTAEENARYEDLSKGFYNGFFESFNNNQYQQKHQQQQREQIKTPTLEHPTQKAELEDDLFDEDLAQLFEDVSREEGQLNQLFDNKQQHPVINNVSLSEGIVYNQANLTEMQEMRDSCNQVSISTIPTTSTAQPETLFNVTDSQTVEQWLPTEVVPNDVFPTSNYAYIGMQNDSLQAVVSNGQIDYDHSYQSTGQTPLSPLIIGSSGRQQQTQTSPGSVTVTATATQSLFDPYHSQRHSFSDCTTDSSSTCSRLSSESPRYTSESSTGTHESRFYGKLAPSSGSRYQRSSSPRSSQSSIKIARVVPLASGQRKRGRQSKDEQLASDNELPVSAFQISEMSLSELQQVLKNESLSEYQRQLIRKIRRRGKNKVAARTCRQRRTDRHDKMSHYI
# [3] = biological target: FAD-linked sulfhydryl oxidase ALR (Homo sapiens, UniProt P55789); assay: inhibitors of human ALR sulfhydryl oxidase, dose response, biochemical, H2O2 detection, luminescence, cherry-pick (AID 493248)
# FAD-linked sulfhydryl oxidase ALR, sequence (P55789 whole entry): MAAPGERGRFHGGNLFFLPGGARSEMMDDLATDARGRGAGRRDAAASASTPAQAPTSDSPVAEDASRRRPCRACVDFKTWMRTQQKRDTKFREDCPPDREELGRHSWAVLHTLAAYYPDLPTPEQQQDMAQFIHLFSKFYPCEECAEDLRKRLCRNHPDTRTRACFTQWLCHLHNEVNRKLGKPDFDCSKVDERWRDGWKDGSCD
# [4] = biological target: T4, Rac GTPase-activating protein 1 (Homo sapiens, UniProt Q9H0H5); assay: MgcRacGAP GTPase-activating activity inhibitors, confirmation, biochemical, ADP Hunter fluorescence, primary and confirmatory (AID 624330); type: functional
# T4 sequence (Q9H0H5 whole entry): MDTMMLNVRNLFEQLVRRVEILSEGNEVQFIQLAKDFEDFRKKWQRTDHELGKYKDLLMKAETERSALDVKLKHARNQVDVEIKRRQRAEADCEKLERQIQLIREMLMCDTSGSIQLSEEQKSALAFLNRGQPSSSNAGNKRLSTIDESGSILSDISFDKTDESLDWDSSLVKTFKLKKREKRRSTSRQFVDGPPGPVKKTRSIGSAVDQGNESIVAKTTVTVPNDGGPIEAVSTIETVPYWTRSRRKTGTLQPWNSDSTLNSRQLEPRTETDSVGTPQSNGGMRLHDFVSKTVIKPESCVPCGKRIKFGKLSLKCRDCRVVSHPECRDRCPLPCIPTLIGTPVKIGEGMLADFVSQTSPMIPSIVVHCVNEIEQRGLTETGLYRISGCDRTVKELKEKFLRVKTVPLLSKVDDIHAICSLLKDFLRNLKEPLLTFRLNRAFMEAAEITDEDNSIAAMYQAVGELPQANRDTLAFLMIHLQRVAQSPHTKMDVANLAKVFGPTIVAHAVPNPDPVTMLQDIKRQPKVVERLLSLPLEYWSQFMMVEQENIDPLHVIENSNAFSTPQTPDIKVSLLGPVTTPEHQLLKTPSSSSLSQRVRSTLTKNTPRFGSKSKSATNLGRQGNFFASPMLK
# [5] = cytotoxicity toward NIH3T3 fibroblasts, dose response, counter-screen, cell-based, ATP luminescence, mouse fibroblasts (AID 2010); type: functional;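 also: cells exposed to compound for about 90 hours before reading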
# [6] = inhibitors of intracellular T. cruzi replication, confirmation, NIH3T3 host cells, beta-gal luminescence (AID 2044); type: functional, cell-based;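 also: intracellular parasites grown in NIH/3T3 mouse fibroblasts as host cells; luminescent beta-galactosidase reporter signal from transgenic T. cruzi replicating inside host cells; inhibitors lower the luminescence signal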
# Paired box protein Pax-8 = Paired box protein Pax-8 (Homo sapiens, UniProt Q06710); assay: inhibitors of PAX8-driven TPO luciferase reporter, dose response, RMG-I cells, cherry-pick (AID 687027); type: functional, cell-based;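 also: luciferase reporter driven by Pax8 target thyroperoxidase promoter measured by SteadyGlo luminescence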
# Paired box protein Pax-8, sequence (Q06710 whole entry): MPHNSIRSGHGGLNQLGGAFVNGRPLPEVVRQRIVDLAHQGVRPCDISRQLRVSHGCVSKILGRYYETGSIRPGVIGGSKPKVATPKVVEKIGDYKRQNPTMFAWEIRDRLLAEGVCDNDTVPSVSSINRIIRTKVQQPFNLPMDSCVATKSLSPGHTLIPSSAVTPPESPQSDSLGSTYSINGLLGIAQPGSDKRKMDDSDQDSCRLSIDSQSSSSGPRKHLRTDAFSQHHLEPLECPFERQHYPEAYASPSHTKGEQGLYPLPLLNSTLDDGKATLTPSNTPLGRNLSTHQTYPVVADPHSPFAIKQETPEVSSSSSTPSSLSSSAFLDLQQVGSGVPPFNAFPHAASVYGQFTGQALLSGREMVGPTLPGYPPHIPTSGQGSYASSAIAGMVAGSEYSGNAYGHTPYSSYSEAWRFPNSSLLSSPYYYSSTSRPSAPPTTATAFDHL
# INS1 = assay: beta cell apoptosis inhibitors, cytokine rescue, dose response, luminescence, retest (AID 449756); type: functional, cell-based; conditions: Rattus norvegicus;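 also: cell death triggered by IL-1 beta plus TNF-alpha plus IFN-gamma mixture; protective hits raise ATP signal compared with cytokine alone wells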
# [7] = Luminescence Cell-Based Dose Response HTS to Identify Activators of Luciferase Translation or Activity in H4 […] Cells. [Related pubchem assays: 1829 (Project Summary), 1814 (Primary HTS)]; type: functional
# H4 = assay: Luminescence Cell-Based Dose Response HTS to Identify Activators of 5'UTR Stem-Loop Driven Prion Protein mRNA Translation in H4 Neuroglioblastoma Cells. [Related pubchem assays: 1829 (Project Summary), 1814 (Primary HTS)]; type: functional; conditions: Homo sapiens
structure (smiles),measurement,setting,value
O=C(Cn1cc(C=C2C(=O)NC(=O)NC2=O)c2ccccc21)NCC1CCCO1 (centres undefined),EC50,[1],10.1 µM (active)
same,EC50,[2],16.7 µM (active)
Cc1ccc(S(=O)(=O)N2CC=C(c3c(C)n(C)c4ccccc34)CC2)cc1,IC50,Protein skinhead-1,> 100 µM (inactive)
O=C(Nc1c(C(=O)O)[nH]c2ccccc12)NC1CCCCC1,AC50,[3],1.26 µM (active)
O=[N+]([O-])c1cc2c(cc1Br)-c1ccccc1C2,IC50,Protein skinhead-1,> 100 µM (inactive)
CN1C(=O)N(c2ccccc2)C(Nc2nncs2)C1(C)C (centres undefined),IC50,Protein skinhead-1,> 100 µM (inactive)
O=C(N/N=C\c1ccc(-c2ccc(Cl)c(Cl)c2)o1)C(=O)N1CCCC1,EC50,[1],29.6 µM (active)
same,EC50,[2],49.5 µM (active)
Cc1cc(S(=O)(=O)Nc2ccc(N(C)C)cc2)c(C)s1,AC50,[3],0.704 µM (active)
Cc1cc(C)cc(N2C(=O)CSC2c2ccccn2)c1 (centres undefined),AC50,[3],0.731 µM (active)
COc1ccc2c(-c3ccccc3)cc(SCC(N)=O)nc2c1,EC50,[1],> 300 µM (not active)
same,EC50,[2],> 300 µM (not active)
CC(C)(C)OC(=O)NCCCC1=CC2=CC(=O)C(C)(OC(=O)C3CCCC3)C(=O)C2=CO1 (centres undefined),EC50,[1],18.7 µM (active)
same,EC50,[2],18.8 µM (active)
Cc1cc(C)c(OCCOCCN2CCNCC2)c(C)c1,IC50,Protein skinhead-1,> 100 µM (inactive)
Cc1ccc(CSCC(=O)N2CCOCC2)cc1,IC50,Protein skinhead-1,> 100 µM (inactive)
CCCS(=O)(=O)NCc1ccc2c(c1)cc(C)n2C,IC50,Protein skinhead-1,> 100 µM (inactive)
CCN(CC)c1ccc(CN2CCC(C(=O)NCc3ccc(C)cc3)CC2)cc1,AC50,[3],5.7 µM (active)
COc1ccc(N2C(=O)CSC2c2ccccc2[N+](=O)[O-])cc1 (centres undefined),AC50,[3],4.55 µM (active)
O=C(NC1CCN(C(=S)Nc2ccc(Cl)cc2)CC1)c1ccco1,IC50,Protein skinhead-1,> 100 µM (inactive)
CCC(=O)Nc1cc(C)c(NC(=O)CCc2ccccc2)cn1,EC50,[1],26 µM (inconclusive)
same,EC50,[2],24 µM (active)
CCOCCCNc1nc2nc3ccc(C)cn3c(=O)c2cc1C(=O)NCC1CCCO1 (centres undefined),EC50,[1],> 300 µM (not active)
same,EC50,[2],> 300 µM (not active)
ClCc1nc2ccccc2n1Cc1ccccc1,EC50,[1],3.93 µM (inconclusive)
same,EC50,[2],2.24 µM (inconclusive)
CC1CCC2C(C1)Nc1c(C(=O)O)cccc1C2(C)C (centres undefined),AC50,[3],4.55 µM (active)
COc1cc(/C=N/NC(=O)c2cccc(N3CCCC3=O)c2)ccc1O,AC50,[3],2.71 µM (active)
same,IC50,[4],30.9 µM (active)
Fc1ccc(Nc2c3c(nc4ccccc24)CCC3)cc1,EC50,[5],> 60 µM (inconclusive)
same,EC50,[6],2.48 µM (active)
same,AC50,[3],6.31 µM (active)
C[C@@H]1CCCCO[C@@H](CN(C)C(=O)Cc2ccccc2)[C@@H](C)CN([C@@H](C)CO)C(=O)c2cc(NC(=O)Nc3ccc(C(F)(F)F)cc3)ccc2O1,AC50,Paired box protein Pax-8,4.87 µM (active)
CCOC(=O)c1c(N)sc2c(OC)c(Br)ccc12,IC50,[4],203 µM (active)
CCOC(=O)N1CCN(S(=O)(=O)c2ccc(C(=O)NNc3nc4ccc(Cl)cc4s3)cc2)CC1,AC50,INS1,3.39 µM (active)
O=C(Nc1nc(-c2ccccc2)ns1)c1cccs1,EC50,[7],1.32 µM (active)
same,AC50,[3],81 µM (active)
same,EC50,H4,> 120 µM (not active)
O=C(NCc1ccccn1)C1Nc2ccc(OC(F)(F)F)cc2C2C=CCC12 (centres undefined),EC50,[1],> 300 µM (not active)
same,EC50,[2],> 300 µM (not active)
Cc1cc(NS(=O)(=O)c2ccc(NC(=O)c3cc(-c4cccnc4)nc4ccc(Cl)cc34)cc2)no1,IC50,Protein skinhead-1,> 100 µM (inactive)
Brc1ccc(-[n+]2c(-c3ccccc3)cc(-c3ccccc3)cc2-c2ccccc2)cc1.[O-][Cl+3]([O-])([O-])[O-],AC50,INS1,2.04 µM (active)
CN1c2ccc(-c3ccc(C#N)cc3)cc2[C@@H]2[C@@H](CCN2C(=O)NC2CCCCC2)[C@@H]1CO,AC50,Paired box protein Pax-8,19.9 µM (active)
COc1cc(/C=C/c2cc(C(=O)O)c3ccccc3n2)cc(OC)c1O,AC50,[3],0.141 µM (active)
Cc1ccc(/C(C#N)=C\c2ccc(N3CCOCC3)o2)cc1,EC50,[5],> 60 µM (inconclusive)
same,EC50,[6],4.37 µM (active)
same,IC50,[4],65.6 µM (active)
Oc1ccc2c(ccc3[nH]cnc32)c1,IC50,[4],43.9 µM (active)
O=C(c1c(Cl)cccc1Cl)N1CCN(c2cccc3[nH]ccc23)CC1,IC50,[4],50.4 µM (active)
Cc1cccn2c(=O)c3cc(C(=O)NCc4ccco4)c(=N)n(C(C)C)c3nc12,EC50,[1],45.5 µM (active)
same,EC50,[2],40.5 µM (active)
COc1ccc(-c2nn(CC(=O)Nc3ccc(Cl)c(Cl)c3)c(=O)c3ccccc23)cc1,IC50,Protein skinhead-1,> 100 µM (inactive)
CCN(CC)S(=O)(=O)c1ccc(/N=N/c2c(C)[nH]n(C(N)=S)c2=O)cc1,AC50,[3],0.782 µM (active)
COC(=O)c1c(-c2ccccc2)noc1-c1ccccc1,IC50,Protein skinhead-1,58.6 µM (inactive)
C[C@@H]1CN([C@H](C)CO)C(=O)c2cc(NC(=O)Nc3ccccc3)ccc2O[C@@H](C)CCCCO[C@H]1CN(C)Cc1ccc(Cl)c(Cl)c1,AC50,Paired box protein Pax-8,7.42 µM (active)
COc1ccc(C2(c3ccc(OC)cc3)NC(=O)N(CC(=O)NC3CCS(=O)(=O)C3)C2=O)cc1 (centres undefined),IC50,Protein skinhead-1,> 100 µM (inactive)
Cc1cc(C=C2C(=O)c3ccccc3C2=O)c(C)n1-c1ccc(Cl)cc1,EC50,[1],> 300 µM (not active)
same,EC50,[2],> 300 µM (not active)
CCCCn1ccnc1C(=O)c1cccc(S(=O)(=O)N2c3ccccc3CC2C)c1 (centres undefined),IC50,Protein skinhead-1,> 100 µM (inactive)
